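Briefly, cells in 96-well plates were exposed to five compound concentrations for 48 h, and endpoints were estimated by linear interpolation. GI50 marks 50% less growth. TGI: total growth inhibition.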
Key:
Assay in all cases: growth of human tumour cells (NCI), 48 h
[1] = tested on: HOP-62 NSCLC
[2] = tested on: CCRF-CEM leukemia
[3] = tested on: SR leukemia
[4] = tested on: KM12 colon
[5] = tested on: OVCAR-3 ovarian
[6] = tested on: ACHN renal
[7] = tested on: TK-10 renal
[8] = tested on: OVCAR-5 ovarian
[9] = tested on: DU-145 prostate
[10] = tested on: HS 578T breast
[11] = tested on: RXF 393 renal
[12] = tested on: HOP-92 NSCLC
[13] = tested on: NCI/ADR-RES ovarian
[14] = tested on: A498 renal
[15] = tested on: HCC-2998 colon
[16] = tested on: SF-295 CNS
[17] = tested on: A549 NSCLC
[18] = tested on: MDA-MB-435
[19] = tested on: IGROV1 ovarian
[20] = tested on: HCT-15 colon
[21] = tested on: NCI-H226 lung
[22] = tested on: MDA-MB-231 breast
[23] = tested on: SF-539 CNS
[24] = tested on: MALME-3M melanoma
[25] = tested on: NCI-H23 lung
[26] = tested on: UO-31 renal
[27] = tested on: U251 CNS
[28] = tested on: CAKI-1 renal
[29] = tested on: COLO 205 colon
[30] = tested on: PC-3 prostate
[31] = tested on: M14 melanoma
[32] = tested on: NCI-H460 lung
[33] = tested on: OVCAR-8 ovarian
[34] = tested on: SNB-19 CNS
[35] = tested on: SW-620 colon
[36] = tested on: HCT-116 colon
[37] = tested on: EKVX NSCLC
[38] = tested on: RPMI-8226 leukemia
[39] = tested on: SK-MEL-28 melanoma
[40] = tested on: SNB-75 CNS
[41] = tested on: T-47D breast
[42] = tested on: MOLT-4 leukemia
[43] = tested on: SK-OV-3 ovarian
[44] = tested on: UACC-62 melanoma
[45] = tested on: NCI-H522 lung
[46] = tested on: BT-549 breast
[47] = tested on: K-562 leukemia
[48] = tested on: SN12C renal
[49] = tested on: OVCAR-4 ovarian
[50] = tested on: 786-0 renal
[51] = tested on: HL-60(TB) leukemia
[52] = tested on: SK-MEL-2 melanoma
[53] = tested on: LOX IMVI melanoma
[54] = tested on: UACC-257 melanoma
[55] = tested on: SK-MEL-5 melanoma
[56] = tested on: SF-268 CNS
[57] = tested on: HT29 colon
[58] = tested on: MCF7 breast

Work on `COc1ccc([C@H]2[C@H](O)C(=O)N2c2cc(OC)c(OC)c(OC)c2)cc1F` yielded a GI50 [1] of less than 10 nM, a TGI [1] greater than 100000 nM and a GI50 [2] of less than 10 nM. It also gave a TGI [2] greater than 100000 nM, a GI50 [3] of less than 10 nM and a TGI [3] greater than 100000 nM. For the same compound, the GI50 [4] was less than 10 nM, the TGI [4] was greater than 100000 nM and the GI50 [5] was less than 10 nM. For the same compound, the TGI [5] was greater than 100000 nM, the GI50 [6] was less than 10 nM and the TGI [6] was greater than 100000 nM. It also gave a GI50 [7] greater than 100000 nM, a TGI [7] greater than 100000 nM and a GI50 [8] of less than 10 nM. The TGI [8] was greater than 100000 nM, the GI50 [9] was less than 10 nM and the TGI [9] was greater than 100000 nM. For the same compound, the GI50 [10] was less than 10 nM, the TGI [10] was greater than 100000 nM and the GI50 [11] was less than 10 nM. The TGI [12] was greater than 100000 nM, the GI50 [13] was less than 10 nM and the GI50 [14] was greater than 100000 nM. It also gave a TGI [14] greater than 100000 nM, a GI50 [15] of less than 10 nM and a GI50 [16] of less than 10 nM. The TGI [16] was greater than 100000 nM, the GI50 [17] was less than 10 nM and the TGI [17] was greater than 100000 nM. It also gave a GI50 [18] of less than 10 nM, a TGI [18] of less than 10 nM and a GI50 [19] of less than 10 nM. The TGI [19] was greater than 100000 nM, the GI50 [20] was less than 10 nM and the TGI [20] was greater than 100000 nM. It also gave a GI50 [21] of less than 10 nM, a GI50 [22] of less than 10 nM and a TGI [22] greater than 100000 nM. It also gave a GI50 [23] of less than 10 nM, a TGI [23] of less than 10 nM and a GI50 [24] of less than 10 nM. It also gave a TGI [24] greater than 100000 nM, a GI50 [25] of less than 10 nM and a TGI [25] greater than 100000 nM. It also gave a GI50 [26] of less than 10 nM, a TGI [26] greater than 100000 nM and a GI50 [27] of less than 10 nM. The TGI [27] was greater than 100000 nM, the GI50 [28] was less than 10 nM and the TGI [28] was greater than 100000 nM. The GI50 [29] was less than 10 nM, the TGI [29] was less than 10 nM and the GI50 [30] was less than 10 nM. For the same compound, the TGI [30] was greater than 100000 nM, the GI50 [31] was less than 10 nM and the TGI [31] was greater than 100000 nM. For the same compound, the GI50 [32] was less than 10 nM, the TGI [32] was greater than 39100 nM and the GI50 [33] was less than 10 nM. The GI50 [34] was less than 10 nM, the TGI [34] was greater than 100000 nM and the GI50 [35] was less than 10 nM. For the same compound, the TGI [35] was greater than 100000 nM, the GI50 [36] was less than 10 nM and the TGI [36] was greater than 100000 nM. It also gave a TGI [37] greater than 100000 nM, a GI50 [38] of less than 10 nM and a TGI [38] greater than 34500 nM. It also gave a GI50 [39] of less than 10 nM, a TGI [39] greater than 100000 nM and a GI50 [40] of less than 10 nM. For the same compound, the GI50 [41] was greater than 100000 nM, the TGI [41] was greater than 100000 nM and the GI50 [42] was less than 10 nM. The TGI [42] was greater than 100000 nM, the GI50 [43] was less than 10 nM and the TGI [43] was greater than 100000 nM. It also gave a GI50 [44] of less than 10 nM, a TGI [44] greater than 100000 nM and a GI50 [45] of less than 10 nM. It also gave a TGI [45] of less than 10 nM, a GI50 [46] of less than 10 nM and a GI50 [47] of less than 10 nM. The TGI [47] was greater than 100000 nM, the GI50 [48] was less than 10 nM and the TGI [48] was greater than 100000 nM. For the same compound, the GI50 [49] was 546 nM, the TGI [49] was greater than 100000 nM and the GI50 [50] was less than 10 nM. For the same compound, the TGI [50] was greater than 100000 nM, the GI50 [51] was less than 10 nM and the GI50 [52] was less than 10 nM. For the same compound, the TGI [52] was greater than 94800 nM, the GI50 [53] was less than 10 nM and the TGI [53] was greater than 100000 nM. The TGI [54] was greater than 100000 nM, the GI50 [55] was less than 10 nM and the TGI [55] was 12 nM. The GI50 [56] was less than 10 nM, the TGI [56] was greater than 100000 nM and the GI50 [57] was less than 10 nM. The TGI [57] was less than 10 nM, the GI50 [58] was less than 10 nM and the TGI [58] was greater than 100000 nM.

Reference: PubChem BioAssay (NCI)
